Our source for the IC50 values is patent publication US7098340B2, “Benzyl sulfonamide derivatives” (Warner Lambert Company LLC, priority 2003, dated 2006).

Bounds are passed on as bounds.

Broadly, the IC50 is the midpoint of a concentration-inhibition curve. A higher IC50 goes with a need for much substance.

The assay deals with T1, androgen receptor (Homo sapiens, UniProt P10275).
T1 sequence (P10275 1-920 Q868H): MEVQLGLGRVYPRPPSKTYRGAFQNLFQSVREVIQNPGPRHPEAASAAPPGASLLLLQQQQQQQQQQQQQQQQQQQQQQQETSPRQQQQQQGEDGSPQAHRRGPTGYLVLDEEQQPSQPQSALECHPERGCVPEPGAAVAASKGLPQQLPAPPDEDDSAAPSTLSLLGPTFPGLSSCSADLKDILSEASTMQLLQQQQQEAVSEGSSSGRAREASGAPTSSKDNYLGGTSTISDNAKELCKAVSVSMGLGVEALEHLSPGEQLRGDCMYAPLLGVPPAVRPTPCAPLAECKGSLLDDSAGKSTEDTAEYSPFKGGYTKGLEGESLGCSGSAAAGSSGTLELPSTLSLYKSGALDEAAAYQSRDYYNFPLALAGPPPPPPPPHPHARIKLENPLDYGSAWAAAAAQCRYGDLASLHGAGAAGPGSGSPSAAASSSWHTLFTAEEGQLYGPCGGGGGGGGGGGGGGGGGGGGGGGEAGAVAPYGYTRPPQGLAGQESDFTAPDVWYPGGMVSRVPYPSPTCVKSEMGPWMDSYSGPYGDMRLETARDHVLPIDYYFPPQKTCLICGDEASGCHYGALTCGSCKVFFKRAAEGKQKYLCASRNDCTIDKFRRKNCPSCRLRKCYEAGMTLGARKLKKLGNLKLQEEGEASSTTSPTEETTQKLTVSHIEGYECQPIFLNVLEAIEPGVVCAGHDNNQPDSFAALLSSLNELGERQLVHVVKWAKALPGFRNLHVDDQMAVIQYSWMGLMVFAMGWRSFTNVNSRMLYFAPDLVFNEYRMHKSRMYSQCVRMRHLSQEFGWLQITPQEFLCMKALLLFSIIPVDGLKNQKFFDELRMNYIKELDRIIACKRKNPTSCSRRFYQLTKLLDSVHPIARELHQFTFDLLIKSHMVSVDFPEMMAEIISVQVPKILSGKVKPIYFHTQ
The experiment in a line: AR Antagonist Cell Assay (MMTV-luciferase reporter, DHT-stimulated). In kind it is cell-based. The conditions noted are these: MDA-MB453-MMTV clone 54-19 cells; antagonism of 100 pM DHT, 17 hr, luciferase readout. The procedure, abridged: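 MDA-MB453 cells stably carrying MMTV-ARE-firefly luciferase, in 1% charcoal-treated serum, preincubated 30 min with compound (10 uM or 1 uM) then stimulated with 100 pM DHT for 17 h at 37° C. Luminescence read; result as % inhibition of DHT fold induction.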
On the technique in general: Reporter assays use an easily measured gene product as a stand-in for the process of interest.
Turning to `O=c1cc(C(F)(F)F)c2cc(Cc3ccc(S(=O)(=O)NCc4ccc(Cl)cc4Cl)cc3)ccc2[nH]1` [Example 85, N-(2,4-Dichlorobenzyl)-4-(2-oxo-4-trifluoromethyl-1,2-dihydroquinolin-6-ylmethyl)-benzenesulfonamide], the IC50 is ~10 µM. Under `CSc1ccccc1CNS(=O)(=O)c1ccc(Cc2ccc3[nH]c(=O)cc(C(F)(F)F)c3c2)cc1` [Example 73, N-(2-Methylsulfanylbenzyl)-4-(2-oxo-4-trifluoromethyl-1,2-dihydroquinolin-6-ylmethyl)-benzenesulfonamide] stands > 10 µM; under `Cc1ccc(CNS(=O)(=O)c2ccc(Cc3ccc4[nH]c(=O)cc(C(F)(F)F)c4c3)cc2)o1` [Example 55, N-(5-Methylfuran-2-ylmethyl)-4-(2-oxo-4-trifluoromethyl-1,2-dihydroquinolin-6-ylmethyl)-benzenesulfonamide], > 10 µM. Compound `CCCCN(CCCC)S(=O)(=O)c1ccc(Cc2ccc3oc(=O)cc(C(F)(F)F)c3c2)cc1` [Example 97, N,N-Dibutyl-4-(2-oxo-4-trifluoromethyl-2H-chromen-6-ylmethyl)benzenesulfonamide] displayed an IC50 of 6.23 µM.

Take `CC(C)N(C)S(=O)(=O)c1ccc(Cc2ccc3[nH]c(=O)cc(C(F)(F)F)c3c2)cc1` [Example 7, N-Isopropyl-N-methyl-4-(2-oxo-4-trifluoromethyl-1,2-dihydroquinolin-6-ylmethyl)benzenesulfonamide]: the IC50 was > 10 µM.

The compound `O=c1cc(C(F)(F)F)c2cc(Cc3ccc(S(=O)(=O)Nc4ccc(Cl)cc4)cc3)ccc2[nH]1` [Example 26, N-(4-Chlorophenyl)-4-(2-oxo-4-trifluoromethyl-1,2-dihydroquinolin-6-ylmethyl)-benzenesulfonamide] gave an IC50 of 1.97 µM. `O=c1cc(C(F)(F)F)c2cc(Cc3ccc(S(=O)(=O)NCc4ccc(F)cc4Cl)cc3)ccc2o1` [Example 198] displayed an IC50 of 5.93 µM. The same measure for `O=c1cc(C(F)(F)F)c2cc(Cc3ccc(S(=O)(=O)Nc4cccc(C(F)(F)F)c4)cc3)ccc2o1` [Example 145, 4-(2-Oxo-4-trifluoromethyl-2H-chromen-6-ylmethyl)-N-(3-trifluoromethylphenyl)-benzenesulfonamide]: 1.72 µM. The same measure for `O=c1cc(C(F)(F)F)c2cc(Cc3ccc(S(=O)(=O)NC(CCO)c4ccccc4)cc3)ccc2o1` (centres unmarked) [Example 192, N-(3-Hydroxy-1-phenylpropyl)-4-(2-oxo-4-trifluoromethyl-2H-chromen-6-ylmethyl)benzenesulfonamide]: 6.52 µM; for `O=c1cc(C(F)(F)F)c2cc(Cc3ccc(S(=O)(=O)Nc4cc(-c5ccccc5)n[nH]4)cc3)ccc2[nH]1` [Example 37, 4-(2-Oxo-4-trifluoromethyl-1,2-dihydroquinolin-6-ylmethyl)-N-(5-phenyl-2H-pyrazol-3-yl)-benzenesulfonamide]: > 10 µM. Regarding `Cc1ccc(F)cc1NS(=O)(=O)c1ccc(Cc2ccc3[nH]c(=O)cc(C(F)(F)F)c3c2)cc1` [Example 25], the half-maximal inhibitory concentration (IC50) worked out at 1.12 µM. In the case of `CCOC(=O)Cc1ccc(NS(=O)(=O)c2ccc(Cc3ccc4oc(=O)cc(C(F)(F)F)c4c3)cc2)cc1` [Example 148, {4-[4-(2-Oxo-4-trifluoromethyl-2H-chromen-6-ylmethyl)-benzenesulfonylamino]-phenyl}acetic acid ethyl ester], half-maximal inhibition (IC50) required 3.13 µM. Under `O=c1cc(C(F)(F)F)c2cc(Cc3ccc(S(=O)(=O)NC4CCCCCC4)cc3)ccc2o1` [Example 166, N-Cycloheptyl-4-(2-oxo-4-trifluoromethyl-2H-chromen-6-ylmethyl)benzenesulfonamide] stands 6.97 µM; under `O=c1cc(C(F)(F)F)c2cc(Cc3ccc(S(=O)(=O)NCc4ccccc4OC(F)F)cc3)ccc2[nH]1` [Example 83, N-(2-Difluoromethoxybenzyl)-4-(2-oxo-4-trifluoromethyl-1,2-dihydroquinolin-6-ylmethyl)-benzenesulfonamide], > 10 µM; under `O=c1cc(C(F)(F)F)c2cc(Cc3ccc(S(=O)(=O)Nc4cccc(OC(F)F)c4)cc3)ccc2o1` [Example 143, N-(3-Difluoromethoxyphenyl)-4-(2-oxo-4-trifluoromethyl-2H-chromen-6-ylmethyl)-benzenesulfonamide], 2.81 µM. Under `O=c1cc(C(F)(F)F)c2cc(Cc3ccc(S(=O)(=O)NCCN4CCCC4)cc3)ccc2[nH]1` [Example 56, 4-(2-Oxo-4-trifluoromethyl-1,2-dihydroquinolin-6-ylmethyl)-N-(2-pyrrolidin-1-yl-ethyl)-benzenesulfonamide] stands 3.64 µM; under `CC(C)CCNS(=O)(=O)c1ccc(Cc2ccc3oc(=O)cc(C(F)(F)F)c3c2)cc1` [Example 159, N-(3-Methylbutyl)-4-(2-oxo-4-trifluoromethyl-2H-chromen-6-ylmethyl)benzenesulfonamide], > 10 µM.
